Here are results for 12 compounds from PubChem BioAssay (NCI).

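Tested at 5 concentrations; 48 h exposure; 96-well plates; endpoints linearly interpolated, else capped at highest concentration. GI50: concentration for 50% inhibition of growth. TGI is the concentration that stops growth completely.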

Holding throughout (experiment): growth of human tumour cells (NCI), 48 h
The subject of assay [1] is A498 renal.
Assay [2] concerns A549 NSCLC.
The test system of assay [3] is ACHN renal.
In assay [4] the test system is DU-145 prostate.
Assay [5] concerns KM20L2 colon.
For assay [6], the system named is LXFL 529 NSCLC.
For assay [7], the system named is MCF7 breast.
Assay [8] has as its system OVCAR-5 ovarian.
Assay [9] has as its system SK-MEL-2 melanoma.
Assay [10] deals with SK-OV-3 ovarian.
Assay [11] concerns SNB-78 CNS.
Assay [12] concerns DLD-1 colon.

`C=CCNc1nc2c(s1)C(=O)c1ccccc1C2=O`: the TGI turned out to be 34 µM in [1]; 19.3 µM in assay [2]; 20.2 µM in assay [3]; 35.6 µM in [4]; 33.5 µM in assay [5]; 24.2 µM in assay [6]. Moreover, the TGI in assay [7] amounted to 24.4 µM; in [8] it was 37.5 µM; in [9] it was 25.9 µM; in [10], 31.7 µM; in assay [11], 72.9 µM.

Regarding `COc1ccc(NC(=O)CC2SC(=Nc3ccccc3C)NC2=O)c([N+](=O)[O-])c1` (stereo unspecified), the TGI in assay [2], in [3], in assay [12], in assay [5], in assay [6] and in [8] was above 100 µM throughout. In addition, the TGI in assay [9], in [10] and in [11] was above 100 µM each time.

Take `C#Cc1cccc(N2C(=O)c3c(c(-c4ccccc4)c(-c4ccc(Cc5ccc(-c6c(-c7ccccc7)c7c(c(-c8ccccc8)c6-c6ccccc6)C(=O)N(c6cccc(C#C)c6)C7=O)cc5)cc4)c(-c4ccccc4)c3-c3ccccc3)C2=O)c1`: the TGI in assay [2], in [3], in assay [12], in [5], in [6] and in assay [8] was above 100 µM in each case. Further, the TGI in assay [9] and in assay [11] was above 100 µM throughout.

With `CC1=C[C@H]2c3c([nH]c4ccccc34)C(c3c[nH]c4ccccc34)[C@H]2CC1` (stereo partly specified), the TGI came to 35.8 µM in assay [1]; 26.4 µM in assay [2]; 25 µM in [3]; 19.1 µM in assay [12]; 15.5 µM in [6]; 26.6 µM in [10]. The TGI in [11] stood at 13.2 µM.

With `N#Cc1ccccc1C(Cl)(Cl)c1cnccn1`, the TGI in assay [1], in [2], in [3], in assay [12], in assay [6] and in [8] was above 100 µM throughout. The TGI in [9], in [10] and in assay [11] was above 100 µM in each case.

Consider `CC(=O)N/N=C1\CC(C)(C)C2CCC1C2` (stereo unspecified), for which the TGI in assay [1], in assay [2], in [3], in [6], in [8] and in assay [9] was above 100 µM in each case. For the same compound, the TGI in assay [10] and in assay [11] was above 100 µM throughout.

In the case of `COC/C=C\COC`, the TGI in assay [2], in assay [3], in [12], in assay [5], in assay [6] and in [8] was above 100 µM in each case. Moreover, the TGI in assay [9], in assay [10] and in assay [11] was above 100 µM each time.

On to `O=C(Nc1cc(C(F)(F)F)ccc1Cl)c1ccc(NC2=C(Cl)C(=O)N(Cc3ccccc3)C2=O)cc1`, for which the GI50 is 69.9 µM in assay [1]; above 100 µM in [2]; 23.8 µM in assay [3]; 26.9 µM in assay [4]; 11.6 µM in assay [7]; above 100 µM in [8]. Also, the GI50 in assay [9] is 18.6 µM; in assay [10], above 100 µM. Besides, the TGI in [1] was above 100 µM; in [2], above 100 µM; in [3] it was 64.9 µM; in assay [4] it was 80.9 µM; in [7], above 100 µM; in assay [8], above 100 µM. Further, the TGI was 40.6 µM in assay [9] and above 100 µM in [10].

As for `Cc1ncc(C(=O)Nc2ccc(CN3CCN(C)CC3)c(C(F)(F)F)c2)cc1C#Cc1cnc2cccnn12`, the GI50 was 0.703 µM in assay [1]; 0.32 µM in [2]; 0.287 µM in assay [3]; 0.413 µM in [4]; 0.136 µM in assay [7]; 0.335 µM in assay [8]. Further, the results for the GI50 in assay [9] and in assay [10] were 0.335 µM and 1.63 µM, respectively. For the same compound, the TGI in [1] was 1.47 µM; in assay [2] it was 1.53 µM; in assay [3], 1.53 µM; in assay [4], 2.17 µM; in assay [7] it was 0.663 µM; in [8] it was 5.84 µM. In addition, the TGI was 1.54 µM in [9] and 7.19 µM in assay [10].

Regarding `O=S(=O)(NCCNc1nccc(-c2c(-c3ccc(F)c(O)c3)nc3sccn23)n1)c1ccc(F)cc1`, the GI50 in assay [1] is 5.72 µM; in [2], 3.63 µM; in assay [3] it was 2.58 µM; in assay [4] it was 3.47 µM; in assay [7] it was 2.17 µM; in assay [8], 4.37 µM. Moreover, the GI50 in [9] was 1.87 µM; in [10], 4.28 µM. Further, the TGI in [1] came out at 18.2 µM; in assay [2], 58 µM; in [3], 28.5 µM; in assay [4], 29.2 µM; in assay [7], 12.2 µM; in assay [8], 85.7 µM. Also, the TGI in assay [9] amounted to 12.9 µM; in [10] it was 75.7 µM.

Regarding `CCC(O)c1ccc(Br)cc1NC(=O)c1cccc(Cl)c1` (stereo unspecified), the GI50 in [1] is 16.3 µM; in assay [2], 19.5 µM; in assay [3] it was 23.1 µM; in [4] it was 34.5 µM; in assay [7], 12 µM; in assay [8], 32.3 µM. In addition, the GI50 is 28.1 µM in assay [9] and 23.7 µM in assay [10]. Further, the TGI in assay [1] was 54 µM; in assay [2] it was above 100 µM; in assay [3], above 100 µM; in assay [4], above 100 µM; in assay [7], 96 µM; in assay [8], above 100 µM. In addition, the TGI in assay [9] amounted to 82.4 µM; in assay [10], 64.3 µM.

As for `COc1cc(OC)c(C(=O)/C=C/c2cc3c(cc2OCc2ccccc2)OC(C)(C)CC3)cc1CC=C(C)C`, the GI50 in assay [1] was 5.42 µM; in assay [2] it was 8.92 µM; in assay [3], 5.42 µM; in assay [4], 5.95 µM; in assay [7], 3.08 µM; in [8], 13.4 µM. Further, the GI50 was 6.84 µM in [9] and 7.42 µM in assay [10]. For the same compound, the TGI in assay [1] is 21.8 µM; in [2], above 25 µM; in [3] it was 14.5 µM; in assay [4] it was above 25 µM; in assay [7], 11.2 µM; in assay [8] it was above 25 µM. The TGI in assay [9] and in [10] was above 25 µM throughout.
